From patent US20200163984A1, “USE OF ISOVALERYL SPIRAMYCIN I, II AND/OR III IN MANUFACTURING MEDICAMENT FOR TREATING AND/OR PREVENTING TUMOR, AND MEDICAMENT” (SHENYANG FUYANG PHARMACEUTICAL TECHNOLOGY CO., LTD., priority 2017, published 2020)
≈ marks a conversion by molar mass, not a printed value.

How the values were obtained:
[1] = test system: spleen lymphocytes (ConA, LPS stimulation); assay: Spleen lymphocyte proliferation activity of Lewis lung cancer tumor-bearing mice; assay type: in vivo, C57BL/6 mouse; details: for lymphocyte activity compared with the control group: Lewis tumor-bearing mice; for B Lymphocyte Proliferation Activity (%) / T Lymphocyte Proliferation Activity (%): n = 6
Experimental: In the Lewis lung cancer model, the mice inoculated with the tumor were randomly divided into groups with 10 mice in each group the next day of inoculation. The groups included: a model control group, a positive drug cyclophosphamide control group (CTX, 30 mg/kg), isovaleryl spiramycin I groups with doses of 13, 26 and 52 mg/kg; isovaleryl spiramycin II groups with doses of 13, 26 and 52 mg/kg; isovaleryl spiramycin III groups with doses of 13, 26 and 52 mg/kg. Each group was continuously administered intragastrically for 15 days with a dose of 20 ml/kg.
The serum-free RPMI 1640 medium was placed in a dish, and then the dish was placed on ice. The spleen was aseptically taken and gently ground with a sterile glass slide to prepare a single cell suspension. The single cell suspension was filtered with a double-layer sterile gauze, washed twice with serum-free RPMI1640 medium, and centrifuged at 1,500 rpm for 5 min to remove the obtained supernatant. 2 mL of red blood cell lysate was added to the treated suspension, the mixture was allowed to stand for 2 min, and then 8 mL of RPMI 1640 medium was added, centrifuging was performed at 1,500 rpm for 5 min to remove the obtained supernatant, and then washing was performed twice with the RPMI 1640 medium. […] A single cell suspension was prepared by using a RPMI 1640 medium containing 10% fetal bovine serum.
The spleen cell suspension was taken, and the cell density was adjusted to 1×10^7/mL. Each mouse was set with: A. a control well: 100 μL of RPMI 1640 medium was added; B. a concanavalin A (ConA) stimulation well: 100 μL (10 mg/L) of concanavalin A (ConA) solution was added; and C. a bacterial endotoxin (LPS) stimulating well: 100 μL (20 mg/L) of bacterial endotoxin (LPS) solution was added. The above cells were added to a 96-well plate, and then 100 μL of spleen cell suspension was added to each of the above wells. After the culture plate was transferred to a saturated humidity condition with a volume fraction of 5% CO2 at 37° C. for incubation for 72 h, 10 μL of MTT solution (5 g/L) was added to each well, and incubation was continued to be performed for 4 hours under the same conditions, then the culture was terminated. 100 μl of a triple solution (SDS 10 g, 10M HCl 0.1 mL, […] 5 mL, diluted with distilled water to 100 mL) was added, and the plate was shaken for 10 min to fully dissolve the crystals. The Optical Density (OD) of each well was measured at 570 nm, and the lymphocyte proliferation rate was calculated. Lymphocyte proliferation rate (%)=[(T-C)/C]×100%, wherein T was the Optical Density of the stimulation well, and C is the Optical Density of the control well.

[2] = test system: human pancreatic cancer cell PANC-1; details: PANC-1, MTT, 48 hours
Experimental: (§1) The purpose of the assay is to evaluate the in vitro cell proliferation inhibition or cytotoxic activity of a tested sample.
(§2) MCF-7, MDA-MB-231, HepG2, A549, H460, H1299, 786-0, 769-P, U251, A172, HeLa, PC3, PANC-1, TE-1, SGC7901, and HT-29 were adherent tumor cells. The adherent tumor cells in the logarithmic growth phase were selected and digested with trypsin, then were prepared into a 4 to 5×10^4/ml cell suspension by a medium containing 10% fetal bovine serum. And the cell suspension was inoculated in a 96-well culture plate, and each well was 100 μL. The 96-well culture plate was cultured at 37° C. and 5% CO2 for 24 hours. The experimental group was replaced with a new culture medium containing different concentrations of the sample to be tested, namely, isovaleryl spiramycin I, isovaleryl spiramycin II, or isovaleryl spiramycin III, while the control group was replaced with a culture medium containing the same volume of solvent. Each group was set up with 3 parallel wells that were cultured at 37° C. and 5% CO2 for 48 hours. After the supernatant was removed, the wells were washed carefully for 3 times with PBS. And 100 μL of freshly prepared culture medium containing 0.5 mg/ml MTT was added to each well for continuous incubation for 4 hours at 37° C. After the supernatant was removed carefully, 150 μL of DMSO was added to each well, and after the material was mixed for 10 minutes with a micro-oscillator, the optical density value was measured at 492 nm with a microplate reader.
(§3) The inhibition rate of the medicament on tumor cell growth is calculated according to the following formula:
(§4) Tumor cell growth inhibition rate (%)=[A492 (negative control)−A492 (dosing group)]/A492 (negative control)×100%
(§5) And the half-inhibitory concentration (IC50) of the sample is determined therefrom.

[3] = test system: human cervical cancer cell HeLa; details: MTT, 48 hours
Experimental: as §1, §2, §3, §4, §5

human glioma cell U251 = details: U251, MTT, 48 hours
Experimental: as §1, §2, §3, §4, §5

[4] = test system: human renal cell adenocarcinoma cell 769-P; details: MTT, 48 hours
Experimental: as §1, §2, §3, §4, §5

[5] = test system: human breast cancer cells MDA-MB-231; details: MDA-MB-231, MTT, 48 hours
Experimental: as §1, §2, §3, §4, §5

[6] = test system: human prostate cancer cell PC3; details: PC3, MTT, 48 hours
Experimental: as §1, §2, §3, §4, §5

[7] = test system: human breast cancer cells MCF-7; details: MCF-7, MTT, 48 hours
Experimental: as §1, §2, §3, §4, §5

[8] = test system: human glioblastoma cell A172; details: A172, MTT, 48 hours
Experimental: as §1, §2, §3, §4, §5

[9] = test system: human colon cancer cell HT-29; details: HT-29, MTT, 48 hours
Experimental: as §1, §2, §3, §4, §5

[10] = test system: human esophageal cancer cell TE-1; details: TE-1, MTT, 48 hours
Experimental: as §1, §2, §3, §4, §5

[11] = test system: human hepatoma cells HepG2; details: HepG2, MTT, 48 hours
Experimental: as §1, §2, §3, §4, §5

[12] = test system: human non-small cell lung cancer cells A549; details: A549, MTT, 48 hours
Experimental: as §1, §2, §3, §4, §5

[13] = test system: human gastric adenocarcinoma cell SGC7901; details: SGC-7901, MTT, 48 hours
Experimental: as §1, §2, §3, §4, §5

[14] = test system: human renal clear cell adenocarcinoma cell 786-O; details: MTT, 48 hours
Experimental: as §1, §2, §3, §4, §5

[15] = test system: human large cell lung cancer cells H460; details: H460, MTT, 48 hours
Experimental: as §1, §2, §3, §4, §5

[16] = 13, 26 and 52 mg/kg, P<0.05, P<0.01

Structure (SMILES)	B Lymphocyte Proliferation Activity (%) ([1]; dose 26 mg/kg)	T Lymphocyte Proliferation Activity (%) ([1]; dose 26 mg/kg)	IC50 [2]	IC50 [3]	IC50 (human glioma cell U251)	IC50 [4]	IC50 [5]	IC50 [6]	IC50 [7]	IC50 [8]	IC50 [9]	IC50 [10]	IC50 [11]	IC50 [12]	IC50 [13]	IC50 [14]	IC50 [15]	lymphocyte activity compared with the control group [1, 16]	B Lymphocyte Proliferation Activity (%) ([1]; dose 13 mg/kg)	T Lymphocyte Proliferation Activity (%) ([1]; dose 13 mg/kg)	also measured
O=P1(N(CCCl)CCCl)NCCCO1 (stereo not drawn) [Cyclophosphamide, cyclophosphamide, reference compound]	11.63 ± 4.68 %	13.24 ± 3.72 %																			lymphocyte activity compared with the control group ([1]; cyclophosphamide, P<0.05): significantly inhibited
CO[C@@H]1[C@@H](O[C@@H]2O[C@H](C)[C@@H](O[C@H]3C[C@@](C)(O)[C@@H](OC(=O)CC(C)C)[C@H](C)O3)[C@H](N(C)C)[C@H]2O)[C@@H](CC=O)C[C@@H](C)[C@@H](O[C@H]2CC[C@H](N(C)C)[C@@H](C)O2)/C=C/C=C/C[C@@H](C)OC(=O)C[C@H]1O [Isovaleryl spiramycin I, isovaleryl spiramycin I]	44.81 ± 4.41 %	36.24 ± 2.15 %	9.96 ± 0.46 µg/mL (≈ 10.7 µM)	10.31 ± 0.27 µg/mL (≈ 11.1 µM)	11.01 ± 0.32 µg/mL (≈ 11.9 µM)	5.09 ± 0.04 µg/mL (≈ 5.49 µM)	18.12 ± 0.61 µg/mL (≈ 19.5 µM)	9.39 ± 0.85 µg/mL (≈ 10.1 µM)	20.79 ± 1.57 µg/mL (≈ 22.4 µM)	10.24 ± 0.37 µg/mL (≈ 11 µM)	17.30 ± 0.52 µg/mL (≈ 18.7 µM)	8.42 ± 1.53 µg/mL (≈ 9.08 µM)	17.90 ± 1.74 µg/mL (≈ 19.3 µM)	19.93 ± 1.66 µg/mL (≈ 21.5 µM)	11.28 ± 1.27 µg/mL (≈ 12.2 µM)	5.08 ± 0.08 µg/mL (≈ 5.48 µM)	19.31 ± 0.35 µg/mL (≈ 20.8 µM)	significantly increase	41.63 ± 7.06 %	25.27 ± 8.20 %	B Lymphocyte Proliferation Activity (%) ([1]; dose 52 mg/kg): 32.71 ± 1.84%; T Lymphocyte Proliferation Activity (%) ([1]; dose 52 mg/kg): 22.26 ± 4.33%
COC1C(OC(C)=O)CC(=O)OC(C)CC=CC=CC(OC2CCC(N(C)C)C(C)O2)C(C)CC(CC=O)C1OC1OC(C)C(OC2CC(C)(O)C(OC(=O)CC(C)C)C(C)O2)C(N(C)C)C1O (stereo not drawn) [Isovaleryl spiramycin II, isovaleryl spiramycin II]	32.68 ± 2.68%	15.82 ± 1.68%	31.93 ± 0.12 µg/mL (≈ 32.9 µM)	33.31 ± 0.40 µg/mL (≈ 34.4 µM)	35.35 ± 1.57 µg/mL (≈ 36.5 µM)	20.61 ± 0.48 µg/mL (≈ 21.3 µM)	49.60 ± 0.39 µg/mL (≈ 51.2 µM)	32.88 ± 0.53 µg/mL (≈ 33.9 µM)	51.14 ± 2.54 µg/mL (≈ 52.8 µM)	33.62 ± 0.57 µg/mL (≈ 34.7 µM)	31.05 ± 3.23 µg/mL (≈ 32 µM)	35.59 ± 2.64 µg/mL (≈ 36.7 µM)	37.94 ± 1.71 µg/mL (≈ 39.1 µM)	36.97 ± 2.92 µg/mL (≈ 38.1 µM)	39.14 ± 1.21 µg/mL (≈ 40.4 µM)	20.18 ± 0.86 µg/mL (≈ 20.8 µM)	41.16 ± 0.71 µg/mL (≈ 42.5 µM)	significantly increase	39.88 ± 3.57%	16.87 ± 3.28%	B Lymphocyte Proliferation Activity (%) ([1]; dose 52 mg/kg): 35.94 ± 3.80%; T Lymphocyte Proliferation Activity (%) ([1]; dose 52 mg/kg): 19.28 ± 2.35%
CCC(=O)O[C@@H]1CC(=O)O[C@H](C)C/C=C/C=C/[C@H](O[C@H]2CC[C@H](N(C)C)[C@@H](C)O2)[C@H](C)C[C@H](CC=O)[C@H](O[C@@H]2O[C@H](C)[C@@H](O[C@H]3C[C@@](C)(O)[C@@H](OC(=O)CC(C)C)[C@H](C)O3)[C@H](N(C)C)[C@H]2O)[C@H]1OC [Isovaleryl spiramycin III, isovaleryl spiramycin III]	34.69 ± 0.34%	18.51 ± 2.60%	13.18 ± 0.23 µg/mL (≈ 13.4 µM)	15.86 ± 0.62 µg/mL (≈ 16.1 µM)	16.46 ± 1.54 µg/mL (≈ 16.7 µM)	10.75 ± 0.56 µg/mL (≈ 10.9 µM)	29.47 ± 0.28 µg/mL (≈ 30 µM)	16.37 ± 0.27 µg/mL (≈ 16.6 µM)	32.44 ± 1.18 µg/mL (≈ 33 µM)	16.17 ± 0.54 µg/mL (≈ 16.4 µM)	22.68 ± 2.32 µg/mL (≈ 23.1 µM)	20.19 ± 1.83 µg/mL (≈ 20.5 µM)	27.42 ± 3.52 µg/mL (≈ 27.9 µM)	28.84 ± 1.73 µg/mL (≈ 29.3 µM)	17.26 ± 0.79 µg/mL (≈ 17.6 µM)	10.52 ± 0.56 µg/mL (≈ 10.7 µM)	28.80 ± 0.19 µg/mL (≈ 29.3 µM)	significantly increase	33.91 ± 2.65%	20.17 ± 5.18%	B Lymphocyte Proliferation Activity (%) ([1]; dose 52 mg/kg): 32.28 ± 1.27%; T Lymphocyte Proliferation Activity (%) ([1]; dose 52 mg/kg): 18.25 ± 1.89%
